Laboratory results published in patent US20230116703A1, “NOVEL ERGOLINES AND METHODS OF TREATING MOOD DISORDERS” (priority 2021, published 2023).

Assays:
[1] = tested on: C57BL/6 mice; experiment: Marble burying test (MBT) in mice; format: in vivo; details: mouse, SC, 30-minute period
Protocol: Compound 1 produced an anxiolytic-like effect in the marble burying test (MBT) in C57BL/6 mice (FIG. 3).
Animals. Adult male C57BL/6 mice, aged 8-10 weeks (body weight 20-25 g) were used in these experiments. Animals were housed under controlled temperatures and 12-hour light/dark cycles (lights on between 07:00-19:00 h), with ad libitum food and water. This study was carried out in strict accordance with the requirements of the Committee for the Purpose of Control and Supervision of Experiments on Animals (CPCSEA), India. All efforts were made to minimize suffering.
Drugs and Drug Administration. Compound 1 was synthesized as described above. Desipramine HCl was commercially obtained. The test compound, vehicle, and the positive control desipramine were administered subcutaneously (SC), with doses calculated based on the freebase. Normal saline was used as the vehicle. All compounds were administered at a volume of 10 mL/kg. All treatments were administered 30 minutes prior to the start of behavioral testing. Group size was n=9-10 per treatment.
Marble Burying Test (MBT). […] Mice were handled for about 2 min daily for the 3 days prior to the beginning of the experimental procedure. […] The total number of marbles buried were counted in three 10-minute time bins (total 30 minutes). […]

[2] = tested on: Sprague Dawley rats; experiment: Forced swim test (FST) in rats; format: in vivo, rat; details: for efficacy in FST compared to positive control desipramine (in words): 0.032 mg/kg, SC
Protocol: Compound 1 induced antidepressant-like effects in the forced swim test (FST) in rats with a 23.5-h pre-treatment time (FIG. 2).
Animals. Male Sprague Dawley rats, aged 9-10 weeks, were used in this experiment. Animals were housed in groups of 2 under controlled temperature (22±3° C.) and relative humidity (30-70%) conditions, with 12-hour light/dark cycles, and with ad libitum food and water. This study was carried out in strict accordance with the requirements of the Committee for the Purpose of Control and Supervision of Experiments on Animals (CPCSEA), India. All efforts were made to minimize suffering.
Drugs and Drug Administration. Compound 1 was synthesized as described above. Desipramine HCl was commercially obtained. The test compound, saline vehicle, and the positive control desipramine were administered subcutaneously (SC), with doses calculated based on the freebase. Normal saline was used as the vehicle. All compounds were administered at a volume of 5 mL/kg. The test compound and vehicle were administered 0.5 h after the start of the training swim (Swim 1) and 23.5 h before the test swim (Swim 2). Desipramine was administered 3 times, at 23.5 h, 5 h, and 1 h before the test swim (Swim 2), each time at a dose of 20 mg/kg. Group size was n=10 per treatment.
Forced Swim Test (FST). […] Rats were handled for about 2 min daily for the 5 days prior to the beginning of the experimental procedure. On the first day of the experiment (i.e., Day 0), post randomization, training swim sessions (Swim 1) were conducted between 12:00 and 18:00 h with all animals by placing rats in individual glass cylinders (46 cm tall×20 cm in diameter) containing 23-25° C. water 30 cm deep for 15 minutes. At the conclusion of Swim 1, animals were dried with paper towels, placed in heated drying cages for 15 minutes, and then returned to their home cages. […]
Behavioral scoring was conducted by observers who were blind to the treatment groups. Animals were continuously observed during Swim 2 and the total time spent engaging in the following behaviors was recorded: immobile, swimming, and climbing. […]

## CCCN1C[C@H](C(=O)N(CC)CC)C=C2c3cccc4[nH]cc(c34)C[C@H]21 [Compound 1, (6aR,9R)—N,N-diethyl-7-propyl-4,6,6a,7,8,9-hexahydroindolo[4,3-fg]quinoline-9-carboxamide]
[1]
  number of marbles buried compared to vehicle (in words): reduced the number of marbles buried
[2]; rat FST, 23.5 h after a single SC administration
  immobility time relative to vehicle (in words): reduced immobility time

## CCCN1C[C@H](C(=O)N2[C@@H](C)C[C@@H]2C)C=C2c3cccc4[nH]cc(c34)C[C@H]21 [Compound 4, ((2S,4S)-2,4-dimethylazetidin-1-yl)((6aR,9R)-7-propyl-4,6,6a,7,8,9-hexahydroindolo[4,3-fg]quinolin-9-yl)methanone]
[2]
  efficacy in FST compared to positive control desipramine (in words): as efficacious as the positive control desipramine

## CCN(CC)C(=O)[C@@H]1C=C2c3cccc4[nH]cc(c34)C[C@H]2N(CCCF)C1 [Compound 2, (6aR,9R)—N,N-diethyl-7-(3-fluoropropyl)-4,6,6a,7,8,9-hexahydroindolo[4,3-fg]quinoline-9-carboxamide]
[2]
  efficacy in FST compared to positive control desipramine (in words): as efficacious as the positive control desipramine
